Experimental data published in ChEMBL document CHEMBL1629537, “Non-natural macrocyclic inhibitors of histone deacetylases: design, synthesis, and activity” (J Med Chem, 2010).

Tests used:
[1] = target: T1, Histone deacetylase 11 (Homo sapiens, UniProt Q96DB2); experiment: Inhibition of human HDAC11 by fluorimetric assay
T1 sequence (Q96DB2 whole entry): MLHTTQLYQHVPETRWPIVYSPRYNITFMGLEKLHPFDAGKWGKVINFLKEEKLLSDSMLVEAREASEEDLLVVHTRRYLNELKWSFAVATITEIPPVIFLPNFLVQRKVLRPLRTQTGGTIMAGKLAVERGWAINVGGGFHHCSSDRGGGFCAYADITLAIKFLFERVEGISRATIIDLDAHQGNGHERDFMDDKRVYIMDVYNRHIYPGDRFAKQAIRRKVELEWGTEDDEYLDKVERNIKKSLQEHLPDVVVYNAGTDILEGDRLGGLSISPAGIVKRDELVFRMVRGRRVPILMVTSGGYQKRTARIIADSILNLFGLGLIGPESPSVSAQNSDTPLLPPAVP

[2] = system: NCI-H460; experiment: cells; assay type: functional, cell-based; settings: Homo sapiens, NCI-H460, 48 h
[3] = target: Histone deacetylase 2 (Homo sapiens, UniProt Q92769)
Sequence of Histone deacetylase 2 (Q92769 whole entry): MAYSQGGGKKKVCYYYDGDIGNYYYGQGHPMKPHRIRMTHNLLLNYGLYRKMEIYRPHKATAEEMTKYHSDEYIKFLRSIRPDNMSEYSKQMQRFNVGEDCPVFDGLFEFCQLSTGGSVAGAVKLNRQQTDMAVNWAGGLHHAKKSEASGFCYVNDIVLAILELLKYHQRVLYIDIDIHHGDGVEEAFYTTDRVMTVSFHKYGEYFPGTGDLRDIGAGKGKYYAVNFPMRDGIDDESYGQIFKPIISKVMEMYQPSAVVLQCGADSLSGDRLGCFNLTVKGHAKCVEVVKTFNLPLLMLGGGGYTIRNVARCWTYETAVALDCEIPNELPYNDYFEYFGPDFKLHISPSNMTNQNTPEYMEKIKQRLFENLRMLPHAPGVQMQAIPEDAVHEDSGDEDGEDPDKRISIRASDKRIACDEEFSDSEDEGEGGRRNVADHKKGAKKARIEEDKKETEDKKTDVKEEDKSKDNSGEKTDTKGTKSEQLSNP

[4] = target: Histone deacetylase 5 (Homo sapiens, UniProt Q9UQL6); experiment: Inhibition of human HDAC5 by fluorimetric assay
Sequence of Histone deacetylase 5 (Q9UQL6 whole entry): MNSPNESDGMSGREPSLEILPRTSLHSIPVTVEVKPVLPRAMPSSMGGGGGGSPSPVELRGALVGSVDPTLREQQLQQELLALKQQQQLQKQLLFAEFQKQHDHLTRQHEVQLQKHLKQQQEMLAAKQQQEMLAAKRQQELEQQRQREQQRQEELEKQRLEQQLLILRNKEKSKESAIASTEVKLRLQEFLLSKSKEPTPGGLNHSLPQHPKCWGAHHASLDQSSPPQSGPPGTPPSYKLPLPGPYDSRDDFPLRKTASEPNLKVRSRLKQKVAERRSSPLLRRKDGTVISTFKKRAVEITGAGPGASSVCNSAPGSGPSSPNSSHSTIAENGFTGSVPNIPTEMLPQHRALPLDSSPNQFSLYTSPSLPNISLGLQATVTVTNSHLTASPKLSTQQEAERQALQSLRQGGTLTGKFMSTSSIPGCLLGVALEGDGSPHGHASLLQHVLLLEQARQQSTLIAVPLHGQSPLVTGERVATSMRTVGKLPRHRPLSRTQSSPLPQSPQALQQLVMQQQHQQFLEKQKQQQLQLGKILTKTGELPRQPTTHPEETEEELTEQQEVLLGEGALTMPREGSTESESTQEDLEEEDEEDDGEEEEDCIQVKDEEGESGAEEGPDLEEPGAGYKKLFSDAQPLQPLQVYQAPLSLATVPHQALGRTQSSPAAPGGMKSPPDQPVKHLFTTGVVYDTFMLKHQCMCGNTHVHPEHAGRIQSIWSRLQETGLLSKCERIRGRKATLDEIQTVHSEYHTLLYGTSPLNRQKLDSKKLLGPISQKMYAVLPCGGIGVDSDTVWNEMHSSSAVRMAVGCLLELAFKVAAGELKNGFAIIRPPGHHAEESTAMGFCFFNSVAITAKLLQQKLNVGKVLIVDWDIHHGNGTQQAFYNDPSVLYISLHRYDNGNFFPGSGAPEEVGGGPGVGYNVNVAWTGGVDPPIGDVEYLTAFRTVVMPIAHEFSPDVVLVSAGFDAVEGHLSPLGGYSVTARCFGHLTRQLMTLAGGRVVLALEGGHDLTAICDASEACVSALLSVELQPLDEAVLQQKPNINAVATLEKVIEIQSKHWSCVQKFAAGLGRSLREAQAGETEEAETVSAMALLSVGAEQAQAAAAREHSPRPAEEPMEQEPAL

[5] = target: Histone deacetylase 9 (Homo sapiens, UniProt Q9UKV0); experiment: Inhibition of human HDAC9 by fluorimetric assay
Sequence of Histone deacetylase 9 (Q9UKV0 whole entry): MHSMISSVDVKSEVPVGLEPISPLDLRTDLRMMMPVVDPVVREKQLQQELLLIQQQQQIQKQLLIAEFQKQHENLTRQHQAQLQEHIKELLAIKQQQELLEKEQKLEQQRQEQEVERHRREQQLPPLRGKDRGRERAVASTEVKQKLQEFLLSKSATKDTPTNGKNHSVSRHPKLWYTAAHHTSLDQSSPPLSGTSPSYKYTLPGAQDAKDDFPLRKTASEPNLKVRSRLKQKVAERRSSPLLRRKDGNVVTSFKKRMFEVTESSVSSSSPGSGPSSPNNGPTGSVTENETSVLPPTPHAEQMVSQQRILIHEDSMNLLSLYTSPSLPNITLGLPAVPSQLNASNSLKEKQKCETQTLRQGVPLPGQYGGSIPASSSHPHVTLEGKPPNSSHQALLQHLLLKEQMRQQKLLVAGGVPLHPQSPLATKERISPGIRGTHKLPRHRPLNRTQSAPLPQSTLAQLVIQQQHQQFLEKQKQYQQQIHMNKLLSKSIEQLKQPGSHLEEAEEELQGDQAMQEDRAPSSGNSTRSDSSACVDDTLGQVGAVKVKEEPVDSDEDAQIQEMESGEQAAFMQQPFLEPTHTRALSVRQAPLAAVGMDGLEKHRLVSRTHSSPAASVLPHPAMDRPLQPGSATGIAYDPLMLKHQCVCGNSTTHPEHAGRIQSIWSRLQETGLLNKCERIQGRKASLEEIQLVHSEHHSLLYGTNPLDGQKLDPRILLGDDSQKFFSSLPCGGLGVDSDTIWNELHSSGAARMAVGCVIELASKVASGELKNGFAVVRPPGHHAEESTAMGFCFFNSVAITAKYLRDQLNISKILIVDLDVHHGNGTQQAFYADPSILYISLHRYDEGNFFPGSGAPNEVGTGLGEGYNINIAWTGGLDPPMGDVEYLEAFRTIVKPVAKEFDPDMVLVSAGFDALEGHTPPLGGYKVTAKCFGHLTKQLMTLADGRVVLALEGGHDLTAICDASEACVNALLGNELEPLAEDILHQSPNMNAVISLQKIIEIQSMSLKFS

[6] = target: Histone deacetylase 3 (Homo sapiens, UniProt O15379)
Sequence of Histone deacetylase 3 (O15379 whole entry): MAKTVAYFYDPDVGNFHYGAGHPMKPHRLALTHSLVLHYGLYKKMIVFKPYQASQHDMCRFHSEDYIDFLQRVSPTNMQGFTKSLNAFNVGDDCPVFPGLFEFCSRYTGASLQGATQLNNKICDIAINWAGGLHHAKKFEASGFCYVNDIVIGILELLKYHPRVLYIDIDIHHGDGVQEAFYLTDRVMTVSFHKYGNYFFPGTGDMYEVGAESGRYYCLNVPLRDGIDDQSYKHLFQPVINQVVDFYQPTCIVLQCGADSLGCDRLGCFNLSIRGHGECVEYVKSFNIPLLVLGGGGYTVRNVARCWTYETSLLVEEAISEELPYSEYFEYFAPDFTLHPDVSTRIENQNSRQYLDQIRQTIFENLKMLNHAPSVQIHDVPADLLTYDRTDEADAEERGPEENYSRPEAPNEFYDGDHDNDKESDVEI

[7] = target: Histone deacetylase 4 (Homo sapiens, UniProt P56524); experiment: Inhibition of human HDAC4 by fluorimetric assay
Sequence of Histone deacetylase 4 (P56524 whole entry): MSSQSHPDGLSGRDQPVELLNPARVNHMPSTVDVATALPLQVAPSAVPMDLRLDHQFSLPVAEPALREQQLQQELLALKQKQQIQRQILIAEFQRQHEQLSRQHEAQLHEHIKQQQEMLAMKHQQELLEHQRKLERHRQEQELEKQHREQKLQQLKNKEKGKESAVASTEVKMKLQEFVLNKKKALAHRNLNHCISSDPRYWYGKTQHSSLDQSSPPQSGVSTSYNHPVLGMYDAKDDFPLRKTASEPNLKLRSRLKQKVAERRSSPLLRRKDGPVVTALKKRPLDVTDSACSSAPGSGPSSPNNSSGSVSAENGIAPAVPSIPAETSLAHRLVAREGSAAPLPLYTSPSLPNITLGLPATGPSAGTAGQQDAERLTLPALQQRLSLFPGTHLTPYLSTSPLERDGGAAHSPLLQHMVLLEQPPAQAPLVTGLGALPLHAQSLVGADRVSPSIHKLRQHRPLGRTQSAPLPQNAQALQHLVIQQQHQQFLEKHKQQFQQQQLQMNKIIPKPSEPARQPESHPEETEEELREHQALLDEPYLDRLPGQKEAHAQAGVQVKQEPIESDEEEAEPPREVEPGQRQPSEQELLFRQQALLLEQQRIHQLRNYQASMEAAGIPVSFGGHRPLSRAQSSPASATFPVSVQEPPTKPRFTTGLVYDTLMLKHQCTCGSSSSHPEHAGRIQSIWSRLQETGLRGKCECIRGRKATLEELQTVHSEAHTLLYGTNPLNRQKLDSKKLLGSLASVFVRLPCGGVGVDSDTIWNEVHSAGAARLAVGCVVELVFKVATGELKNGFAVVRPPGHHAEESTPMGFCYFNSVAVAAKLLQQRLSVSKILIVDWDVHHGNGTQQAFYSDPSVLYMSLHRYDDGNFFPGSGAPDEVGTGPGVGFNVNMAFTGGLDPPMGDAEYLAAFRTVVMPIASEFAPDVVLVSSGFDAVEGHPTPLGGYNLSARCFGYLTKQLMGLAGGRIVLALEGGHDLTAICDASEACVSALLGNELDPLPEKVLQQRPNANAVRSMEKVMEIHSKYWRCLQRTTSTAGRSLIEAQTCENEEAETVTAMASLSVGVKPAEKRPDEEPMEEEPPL

[8] = system: HCT-116; experiment: cells; assay type: functional, cell-based; settings: Homo sapiens, HCT-116, 48 h
[9] = target: T2, Protein deacetylase HDAC6 (Homo sapiens, UniProt Q9UBN7); experiment: Inhibition of human HDAC6 by fluorimetric assay
T2 sequence (Q9UBN7 whole entry): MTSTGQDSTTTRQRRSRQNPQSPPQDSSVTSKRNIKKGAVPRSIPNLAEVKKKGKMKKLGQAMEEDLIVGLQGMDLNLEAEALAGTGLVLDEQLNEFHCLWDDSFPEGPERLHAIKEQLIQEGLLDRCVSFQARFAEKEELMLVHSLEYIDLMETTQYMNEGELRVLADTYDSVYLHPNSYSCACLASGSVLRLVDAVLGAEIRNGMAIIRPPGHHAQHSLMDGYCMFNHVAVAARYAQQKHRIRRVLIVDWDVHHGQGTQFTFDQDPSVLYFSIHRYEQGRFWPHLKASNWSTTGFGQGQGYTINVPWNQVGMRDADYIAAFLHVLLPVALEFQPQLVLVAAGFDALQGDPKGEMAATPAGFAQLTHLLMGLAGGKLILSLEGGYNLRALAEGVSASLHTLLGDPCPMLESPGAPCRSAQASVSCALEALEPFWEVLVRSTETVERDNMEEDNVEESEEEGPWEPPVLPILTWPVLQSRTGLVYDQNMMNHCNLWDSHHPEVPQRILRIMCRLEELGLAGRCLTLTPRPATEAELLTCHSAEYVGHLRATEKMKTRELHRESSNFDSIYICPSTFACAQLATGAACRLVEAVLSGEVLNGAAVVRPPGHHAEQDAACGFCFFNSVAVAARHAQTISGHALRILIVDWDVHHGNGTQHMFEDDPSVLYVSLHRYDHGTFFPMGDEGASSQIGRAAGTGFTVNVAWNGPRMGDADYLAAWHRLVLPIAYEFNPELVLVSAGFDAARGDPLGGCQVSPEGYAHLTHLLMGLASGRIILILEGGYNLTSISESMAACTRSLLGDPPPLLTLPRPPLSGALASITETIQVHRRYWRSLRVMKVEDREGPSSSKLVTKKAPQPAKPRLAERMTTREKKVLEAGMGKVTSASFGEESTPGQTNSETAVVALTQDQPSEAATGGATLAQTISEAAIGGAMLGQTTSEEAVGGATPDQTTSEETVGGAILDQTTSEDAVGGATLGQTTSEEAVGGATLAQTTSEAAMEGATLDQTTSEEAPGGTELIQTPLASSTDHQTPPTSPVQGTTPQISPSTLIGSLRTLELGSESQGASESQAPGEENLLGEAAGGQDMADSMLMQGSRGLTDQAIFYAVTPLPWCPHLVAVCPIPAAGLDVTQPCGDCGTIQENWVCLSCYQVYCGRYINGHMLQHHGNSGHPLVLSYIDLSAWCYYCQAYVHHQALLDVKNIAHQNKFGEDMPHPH

[10] = target: T3, Polyamine deacetylase HDAC10 (Homo sapiens, UniProt Q969S8); experiment: Inhibition of human HDAC10 by fluorimetric assay
T3 sequence (Q969S8 whole entry): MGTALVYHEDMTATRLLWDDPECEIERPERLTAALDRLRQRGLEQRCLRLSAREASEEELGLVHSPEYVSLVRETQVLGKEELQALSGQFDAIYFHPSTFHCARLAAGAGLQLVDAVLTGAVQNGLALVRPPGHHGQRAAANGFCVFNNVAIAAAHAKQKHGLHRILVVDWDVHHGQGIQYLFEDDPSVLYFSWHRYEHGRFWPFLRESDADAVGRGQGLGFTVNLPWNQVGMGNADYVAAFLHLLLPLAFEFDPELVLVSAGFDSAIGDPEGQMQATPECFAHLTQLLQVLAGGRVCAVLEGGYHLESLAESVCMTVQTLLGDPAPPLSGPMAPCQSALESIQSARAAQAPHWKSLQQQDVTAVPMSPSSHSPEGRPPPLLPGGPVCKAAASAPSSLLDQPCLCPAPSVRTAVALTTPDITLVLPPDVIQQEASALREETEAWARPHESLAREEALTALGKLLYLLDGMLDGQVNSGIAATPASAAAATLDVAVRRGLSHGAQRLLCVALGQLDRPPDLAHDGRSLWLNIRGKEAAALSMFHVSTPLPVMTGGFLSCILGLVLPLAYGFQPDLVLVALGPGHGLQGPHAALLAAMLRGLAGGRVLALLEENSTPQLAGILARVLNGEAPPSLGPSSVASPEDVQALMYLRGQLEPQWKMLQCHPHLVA

[11] = target: T4, Histone deacetylase 8 (Homo sapiens, UniProt Q9BY41); experiment: Inhibition of human HDAC8 by fluorimetric assay
T4 sequence (Q9BY41 whole entry): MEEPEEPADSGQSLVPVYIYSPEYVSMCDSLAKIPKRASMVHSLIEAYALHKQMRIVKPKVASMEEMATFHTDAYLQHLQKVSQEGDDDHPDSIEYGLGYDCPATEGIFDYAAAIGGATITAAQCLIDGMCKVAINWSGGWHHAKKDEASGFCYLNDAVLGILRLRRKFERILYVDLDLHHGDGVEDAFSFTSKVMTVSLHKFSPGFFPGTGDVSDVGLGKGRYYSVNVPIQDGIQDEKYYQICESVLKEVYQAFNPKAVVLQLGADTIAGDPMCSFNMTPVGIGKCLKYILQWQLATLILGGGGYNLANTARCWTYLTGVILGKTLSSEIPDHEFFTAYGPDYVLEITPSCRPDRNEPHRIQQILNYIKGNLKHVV

[12] = target: Histone deacetylase 1 (Homo sapiens, UniProt Q13547); experiment: Inhibition of human HDAC1 by fluorimetric assay
Sequence of Histone deacetylase 1 (Q13547 whole entry): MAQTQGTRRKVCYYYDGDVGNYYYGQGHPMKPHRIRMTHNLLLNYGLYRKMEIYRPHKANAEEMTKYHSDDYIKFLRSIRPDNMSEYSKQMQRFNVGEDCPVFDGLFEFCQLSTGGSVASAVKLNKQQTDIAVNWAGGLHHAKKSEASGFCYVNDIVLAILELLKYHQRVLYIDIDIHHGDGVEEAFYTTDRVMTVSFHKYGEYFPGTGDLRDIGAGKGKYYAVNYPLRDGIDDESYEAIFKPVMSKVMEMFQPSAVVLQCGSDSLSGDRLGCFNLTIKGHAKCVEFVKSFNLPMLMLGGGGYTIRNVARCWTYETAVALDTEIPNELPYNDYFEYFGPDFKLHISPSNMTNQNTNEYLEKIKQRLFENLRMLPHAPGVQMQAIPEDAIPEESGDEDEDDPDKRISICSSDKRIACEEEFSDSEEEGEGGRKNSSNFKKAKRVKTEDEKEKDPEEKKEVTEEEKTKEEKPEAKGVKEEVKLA

[13] = target: T5, Histone deacetylase 7 (Homo sapiens, UniProt Q8WUI4); experiment: Inhibition of human HDAC7 by fluorimetric assay
T5 sequence (Q8WUI4 whole entry): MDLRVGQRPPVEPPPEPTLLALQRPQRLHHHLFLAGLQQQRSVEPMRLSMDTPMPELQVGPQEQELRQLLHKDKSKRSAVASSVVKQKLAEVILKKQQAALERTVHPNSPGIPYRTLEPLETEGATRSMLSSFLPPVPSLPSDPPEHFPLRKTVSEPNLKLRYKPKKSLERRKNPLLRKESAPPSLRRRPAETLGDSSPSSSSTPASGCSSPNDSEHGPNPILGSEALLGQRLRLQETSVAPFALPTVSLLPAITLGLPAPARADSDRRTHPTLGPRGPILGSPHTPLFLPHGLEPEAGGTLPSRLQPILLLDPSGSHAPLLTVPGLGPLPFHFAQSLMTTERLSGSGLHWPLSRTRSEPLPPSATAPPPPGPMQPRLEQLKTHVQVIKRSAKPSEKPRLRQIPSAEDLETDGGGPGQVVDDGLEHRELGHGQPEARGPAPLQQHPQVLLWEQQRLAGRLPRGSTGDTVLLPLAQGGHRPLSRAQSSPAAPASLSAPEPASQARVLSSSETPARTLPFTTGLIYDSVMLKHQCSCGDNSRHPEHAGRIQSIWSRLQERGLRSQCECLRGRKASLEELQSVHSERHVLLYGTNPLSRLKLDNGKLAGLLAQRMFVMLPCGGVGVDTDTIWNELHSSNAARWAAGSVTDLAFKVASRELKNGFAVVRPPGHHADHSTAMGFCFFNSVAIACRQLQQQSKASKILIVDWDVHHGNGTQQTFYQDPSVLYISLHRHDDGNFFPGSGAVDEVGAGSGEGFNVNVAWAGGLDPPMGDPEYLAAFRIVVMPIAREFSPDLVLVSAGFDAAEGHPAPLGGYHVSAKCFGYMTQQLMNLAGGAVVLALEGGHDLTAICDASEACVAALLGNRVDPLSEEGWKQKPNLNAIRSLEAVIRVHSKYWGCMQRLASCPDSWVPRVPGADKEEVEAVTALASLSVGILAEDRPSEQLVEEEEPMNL

Row | Compound | IC50 [1] [nM] | IC50 [2] [nM] | IC50 [3] [nM] | IC50 [4] [nM] | IC50 [5] [nM] | IC50 [6] [nM] | IC50 [7] [nM] | IC50 [8] [nM] | IC50 [9] [nM] | IC50 [10] [nM] | IC50 [11] [nM] | IC50 [12] [nM] | IC50 [13] [nM]
1 | COc1cc2cc(c1)COc1ccccc1NC(=O)[C@H](CCCCCC(=O)NO)OC/C=C\2 | 22.9 | 1050 | 158 | 62.2 | 60.6 | 55.7 | 79.4 | 690 | 0.84 | 62.5 | 198 | 31.7 | 27.8
2 | COc1cc2cc(c1)COc1ccccc1NC(=O)[C@@H](CCCCCC(=O)NO)OC/C=C\2 | 97.1 | 820 | 382 | 155 | 302 | 89 | 284 | 640 | 10.2 | 152 | 206 | 78.1 | 180
3 | COc1cc2cc(c1)COc1ccccc1NC(=O)[C@H](CCCCCC(=O)NO)OCCC2 | 103 | 740 | 268 | 109 | 123 | 93.6 | 118 | 520 | 3.43 | 190 | 136 | 72.2 | –
4 | COc1cc2cc(c1)COc1ccccc1NC(=O)[C@@H](CCCCCC(=O)NO)OCCC2 | 174 | 680 | 425 | 150 | 322 | 94.5 | 454 | 850 | 3.92 | 200 | 90.7 | 102 | –
5 | O=C(CCCCCC1OCCCCCOc2ccccc2NC1=O)NO (racemic) | 1210 | 2000 | 1930 | 1340 | 1900 | 369 | 2580 | 690 | 15.6 | 1530 | 643 | 949 | 1720
6 | O=C(CCCCCC1OCCCCCCOc2ccccc2NC1=O)NO (racemic) | 564 | 1000 | 1570 | 878 | 687 | 176 | 1200 | 580 | 10.1 | 683 | 1100 | 560 | –
7 | O=C(CCCCCC1OCCCCCCCOc2ccccc2NC1=O)NO (racemic) | 546 | 620 | 1540 | 695 | 1040 | 240 | 1250 | 350 | 9.38 | 958 | 286 | 439 | –
8 | COc1cc2cc(c1)COc1ccccc1NC(=O)C(CCCCCC(=O)NO)OC/C=C\2 (racemic) | 57.7 | 880 | 207 | 55.4 | 99.6 | 39.6 | 159 | 450 | 1.97 | 70.7 | 119 | 30.7 | 72.6
9 | COc1cc2cc(c1)COc1ccccc1NC(=O)C(CCCCCC(=O)NO)OCCC2 (racemic) | 226 | 870 | 793 | 341 | 336 | 246 | 447 | 690 | 8.44 | 320 | 444 | 204 | –
10 | COc1ccc(COC(CCCCCC(=O)NO)C(=O)Nc2ccccc2)cc1 (racemic) | 197 | – | 254 | 134 | 247 | 131 | 648 | – | 20.1 | 179 | 331 | 53.4 | –
11 | O=C(/C=C/c1ccc(CN(CCO)CCc2c[nH]c3ccccc23)cc1)NO [DACINOSTAT] | – | 70 | – | – | – | – | – | 18 | – | – | – | – | –
12 | CC(/C=C/C(=O)NO)=C\[C@@H](C)C(=O)c1ccc(N(C)C)cc1 [TRICHOSTATIN] | – | 100 | – | – | – | – | – | 43 | – | – | – | – | –
